IC50 and K inact data for 7 molecules are collected here from ChEMBL document CHEMBL1127657, “Haloperidol-based irreversible inhibitors of the HIV-1 and HIV-2 proteases” (J Med Chem, 1994).

By IC50 is commonly meant the midpoint of a concentration-inhibition curve.

Assay [1] concerns the target Human immunodeficiency virus type 1 protease (Human immunodeficiency virus 1, UniProt Q72874). Briefly: In vitro inhibition of recombinant HIV-1 protease expressed in Escherichia coli strain D1210.
The target of assay [2] is T1, Human rhinovirus A protease (Human rhinovirus sp.) (UniProt Q4U254).
T1 sequence (whole entry): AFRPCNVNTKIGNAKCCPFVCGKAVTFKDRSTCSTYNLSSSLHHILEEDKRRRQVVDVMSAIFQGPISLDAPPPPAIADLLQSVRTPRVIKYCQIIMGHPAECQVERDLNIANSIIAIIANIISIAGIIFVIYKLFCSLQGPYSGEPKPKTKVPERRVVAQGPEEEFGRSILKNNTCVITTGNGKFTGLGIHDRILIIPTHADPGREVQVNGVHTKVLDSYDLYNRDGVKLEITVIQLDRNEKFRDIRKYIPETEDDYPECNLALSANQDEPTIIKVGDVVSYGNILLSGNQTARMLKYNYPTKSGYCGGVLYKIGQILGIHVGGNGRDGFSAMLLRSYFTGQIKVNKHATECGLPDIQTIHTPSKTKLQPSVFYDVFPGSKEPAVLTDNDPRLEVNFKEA
Particulars: Human immunodeficiency virus 2.

For assay [3], the target named is Human immunodeficiency virus type 1 protease (Human immunodeficiency virus 1) (UniProt Q72874).
Description: The irreversibility of the inactivation reaction of HIV-1 PR was assessed

On to `O=C(C#CCN1CCC(O)(c2ccc(Cl)cc2)CC1)c1ccccc1`, for which, in assay [1], the IC50 is 20 µM. For `OC1(C#CC2(c3ccccc3)CO2)CCN(Cc2ccccc2)CC1` (centres undefined), the IC50 in assay [1] worked out at 725 µM. Regarding `O=C(/C=C/C[N+]1([O-])CCC(O)(c2ccc(Cl)cc2)CC1)c1ccc(F)cc1` (centres undefined), the IC50 in assay [1] was 30 µM. Besides, the figures for the K inact in assay [2] and in assay [3] were 4.33 min⁻¹ and 86 min⁻¹, respectively. With `O=C(C#CCN1CCC(O)(c2ccc(Cl)cc2)CC1)c1ccc(-c2ccccc2)cc1`, the IC50 in assay [1] is 100 µM. On the same count and under the same terms, as for `OC1(c2ccc(Cl)cc2)CCN(CC#CC2(c3ccccc3)CO2)CC1` (centres undefined), the figure is 150 µM; as for `O=C(C#CCN1CCC(O)(c2ccc(Cl)cc2)CC1)c1cccc(-c2ccccc2)c1`, 63 µM. The same measure, in the same setting: in the case of `O=C(/C=C/CN1CCC(O)(c2ccc(Cl)cc2)CC1)c1ccc(F)cc1` it was 80 µM.
